Measurements published in patent EP1018003B1, “MODULATORS OF DNA CYTOSINE-5 METHYLTRANSFERASE AND METHODS FOR USE THEREOF” (The Regents of the University of California, priority 1997, dated 1999).

Assays:
DCMTase = target: T1, DCMTase (Mus musculus, UniProt P13864); assay: Steady-state kinetic assays (methyl transfer from tritiated AdoMet to DNA); type: biochemical; parameters: key: C, competitive; NC, noncompetitive; UC, uncompetitive inhibition; settings: product inhibition
T1 construct: a highly homogeneous, unproteolyzed preparation of DCMTase from mouse erythroleukemia cells (MEL); endogenous in cells; host or cells: mouse erythroleukemia (MEL) cells; endogenous enzyme purified per Xu et al. 1995
Procedure: Single-stranded DNA was heated to 90 °C and quick cooled on ice, prior to initiation of the reaction. Freeze-thawed DNA produced equivalent results. Incubations were at 37 °C for 60 minutes. […] The reaction was stopped after 60 minutes by transferring 20 μL of the reaction onto a DE 81 filter paper that was processed as described (Flynn et al., 1996). The radioactivity above the background, determined from assays without added poly(dI·dC:dI·dC), was converted to initial velocities and expressed as picomoles of methyl groups transferred to poly(dI·dC:dI·dC) per hour and plotted in double reciprocal form. […] Incubations were at 37 °C for 60 minutes. […] The GC-box b concentrations were: diamonds, 0; circles, 0.75 μM; triangles, 1.5 μM; squares, 5.0 μM. Incubations were at 37 °C for 60 minutes. […] Incubations were at 37 °C for 60 minutes. […] Incubations were at 37 °C for 60 minutes. […] The AdoHcy concentrations were: squares, 0; diamonds, 0.75 μM; circles, 1.5 μM; triangles, 3.0 μM; notched squares, 6.0 μM. Incubations were at 37 °C for 60 minutes. […] Incubations were at 37 °C for 60 minutes. […] The AdoHcy concentrations were: squares, 0; diamonds, 15 μM; circles, 30 μM. […] The standard errors associated with fitted parameters and graphical analysis of the experimental data scattered around the calculated best fit lines were also considered in making an assignment.

[1] = substrate: C[S+](CC[C@H](N)C(=O)O)C[C@H]1O[C@@H](n2cnc3c(N)ncnc32)[C@H](O)[C@@H]1O; assay: purified protein, by the assay type; settings: other: true Michaelis constant, equation 2 (sequential mechanism); 20 nM DCMTase; pH 8.0

Molecule: Nc1ncnc2c1ncn2[C@@H]1O[C@H](CSCC[C@H](N)C(=O)O)[C@@H](O)[C@H]1O [AdoHcy, S-adenosyl-L-homocysteine]
- Type of Inhibition (DCMTase; varied substrate AdoMet, fixed substrate IC): C
- Type of Inhibition (DCMTase; varied substrate IC, fixed substrate AdoMet): NC/UC

B1: DCMTase (Mus musculus) (protein)
chain: MPARTAPARVPALASPAGSLPDHVRRRLKDLERDGLTEKECVREKLNLLHEFLQTEIKSQLCDLETKLHKEELSEEGYLAKVKSLLNKDLSLENGTHTLTQKANGCPANGSRPTWRAEMADSNRSPRSRPKPRGPRRSKSDSDTLSVETSPSSVATRRTTRQTTITAHFTKGPTKRKPKEESEEGNSAESAAEERDQDKKRRVVDTESGAAAAVEKLEEVTAGTQLGPEEPCEQEDDNRSLRRHTRELSLRRKSKEDPDREARPETHLDEDEDGKKDKRSSRPRSQPRDPAAKRRPKEAEPEQVAPETPEDRDEDEREEKRRKTTRKKLESHTVPVQSRSERKAAQSKSVIPKINSPKCPECGQHLDDPNLKYQQHPEDAVDEPQMLTSEKLSIYDSTSTWFDTYEDSPMHRFTSFSVYCSRGHLCPVDTGLIEKNVELYFSGCAKAIHDENPSMEGGINGKNLGPINQWWLSGFDGGEKVLIGFSTAFAEYILMEPSKEYEPIFGLMQEKIYISKIVVEFLQNNPDAVYEDLINKIETTVPPSTINVNRFTEDSLLRHAQFVVSQVESYDEAKDDDETPIFLSPCMRALIHLAGVSLGQRRATRRVMGATKEKDKAPTKATTTKLVYQIFDTFFSEQIEKYDKEDKENAMKRRRCGVCEVCQQPECGKCKACKDMVKFGGTGRSKQACLKRRCPNLAVKEADDDEEADDDVSEMPSPKKLHQGKKKKQNKDRISWLGQPMKIEENRTYYQKVSIDEEMLEVGDCVSVIPDDSSKPLYLARVTALWEDKNGQMMFHAHWFCAGTDTVLGATSDPLELFLVGECENMQLSYIHSKVKVIYKAPSENWAMEGGTDPETTLPGAEDGKTYFFQLWYNQEYARFESPPKTQPTEDNKHKFCLSCIRLAELRQKEMPKVLEQIEEVDGRVYCSSITKNGVVYRLGDSVYLPPEAFTFNIKVASPVKRPKKDPVNETLYPEHYRKYSDYIKGSNLDAPEPYRIGRIKEIHCGKKKGKVNEADIKLRLYKFYRPENTHRSYNGSYHTDINMLYWSDEEAVVNFSDVQGRCTVEYGEDLLESIQDYSQGGPDRFYFLEAYNSKTKNFEDPPNHARSPGNKGKGKGKGKGKGKHQVSEPKEPEAAIKLPKLRTLDVFSGCGGLSEGFHQAGISETLWAIEMWDPAAQAFRLNNPGTTVFTEDCNVLLKLVMAGEVTNSLGQRLPQKGDVEMLCGGPPCQGFSGMNRFNSRTYSKFKNSLVVSFLSYCDYYRPRFFLLENVRNFVSYRRSMVLKLTLRCLVRMGYQCTFGVLQAGQYGVAQTRRRAIILAAAPGEKLPLFPEPLHVFAPRACQLSVVVDDKKFVSNITRLSSGPFRTITVRDTMSDLPEIQNGASNSEIPYNGEPLSWFQRQLRGSHYQPILRDHICKDMSPLVAARMRHIPLFPGSDWRDLPNIQVRLGDGVIAHKLQYTFHDVKNGYSSTGALRGVCSCAEGKACDPESRQFSTLIPWCLPHTGNRHNHWAGLYGRLEWDGFFSTTVTNPEPMGKQGRVLHPEQHRVVSVRECARSQGFPDSYRFFGNILDRHRQVGNAVPPPLAKAIGLEIKLCLLSSARESASAAVKAKEEAATKD
- Km [1]: 1.4 ± 0.2 µM
